The text below walks through data of publication PMC6697720, “Saturation of acyl chains converts cardiolipin from an antagonist to an activator of Toll-like receptor-4” (Cellular and Molecular Life Sciences: CMLS, 2019).

In assay [1] the target is T1, human TLR4/MD2/CD14 (Homo sapiens, UniProt O00206+Q9Y6Y9).
T1 construct: expressed in transfected cells; host or cells: HEK293 (ATCC CRL1573), transient transfection with jetPEI
Briefly: Inhibition of LPS-induced NF-κB luciferase reporter in HEK293 cells transfected with human TLR4/MD2/CD14. The format is cell-based. Conditions: for inhibition of LPS-induced signaling (LPS dose-response, 0 to 1000 ng/mL), mode of action: 1 h CL pre-incubation. As to the method:
(§1) Cells were seeded at 4 × 10^4 cells/mL in 96-well plates (200 μL/well) and transiently transfected 4 days later. Expression vectors containing an NF-κB transcription reporter vector-encoding firefly luciferase (10 ng/well pNF-κB-luc from Clontech), and a constitutively active reporter vector-encoding Renilla luciferase (5 ng/well phRG-TK; Promega), together with empty vector (pcDNA3.1 from Invitrogen Cat. N. V79020) and cDNA encoding human membrane CD14 (3 ng/well) and human or murine TLR4 and MD2 (3 ng/well) were mixed with jetPEI (Polyplus transfection Cat.N. 101-10N) and incubated with cells according to the manufacturer’s instructions.
(§2) After treatment supernatants were discarded, cells were washed with PBS and lysed with passive lysis buffer (Promega Cat.N. E1941). Luciferase and Renilla activity on cell lysates were quantified on a BioTek Synergy HT microplate reader using home-made luciferase reagent (20 mM Tricine, 2.67 mM MgSO4·7H2O, 0.265 mM (MgCO3)4Mg(OH)2·5H2O, 0.1 mM EDTA, 33.3 mM DTT, 530 μM ATP, 270 μM Acetyl Coenzyme A (Lithium salt), 470 μM luciferin (Biosynth), pH 7.8, diluted two times in water before use), or coelenterazine (Biosynth) dissolved in ethanol at 1 mg/mL and diluted 500 times in PBS before use as previously described. Firefly and Renilla luciferase activity on cell lysates were normalized, and data were expressed as fold induction as compared to unstimulated conditions.
In contrast to C16:0 and C18:0, C14:0 CL acted as an agonist in murine but not human cells (Fig. 3), a property similar to that of the LPS variant lipid IVa. to establish whether C14:0, like lipid IVa, is a weak human TLR4 antagonist, we tested the ability of all saturated CLs to inhibit signaling induced by LPS over a range of concentrations. For each CL, cells transfected with human TLR4/MD2/CD14 were pre-incubated with medium alone or two different CL concentrations for 1 h, and then washed and incubated for 6 h with increasing amounts of LPS (from 0 to 1000 ng/mL). […] The dose–response curve of LPS was shifted to the right.
(§3) Fig. 6 C14:0 is a competitive human TLR4 antagonist. HEK293 cells were transfected with plasmids encoding hTLR4, hMD2, and hCD14 together with a luciferase reporter plasmid dependent on NF-κB activation and a constitutively active reporter vector-encoding renilla luciferase. Two days after transfection, cells were incubated for 1 h with medium alone or the indicated amount of CLs, then washed and incubated 6 h with increasing amount of LPS. Luciferase and renilla were then quantified in cell lysate, and normalized and reported here as fold induction as compared to control. Each bar represents the mean ± standard deviation of three biological replicates (n = 3). Graphs are representative of at least three independent experiments
as §3, with “7 Unsaturated cardiolipins are” for “6 C14:0 is a”, “antagonists.” for “antagonist.”, “CLs, and” for “CLs,”
To quantify and compare the potency of CLs as inhibitors, we determined IC50 values in HEK293 cells transfected with human TLR4/MD2/CD14, for each of the antagonists (Fig. 8 and Table 1). […]

In assay [2] the test system is RAW-Blue cells. The experiment in a line: NF-κB activation (SEAP, Quanti-Blue) by CL or LPS in RAW-Blue cells. The format is cell-based, murine. The conditions noted are these: CL alone, overnight. As to the method: RAW-Blue™ cells were seeded the day before the experiment at 5 × 10^5 cells/mL in 48-well plates (500 μL/well).
These cells express a secreted embryonic alkaline phosphatase (SEAP) when NF-κB is activated. NF-κB activation was measured by measuring the alkaline phosphatase produced by RAW-Blue™ cells using the Quanti-Blue™ reagent (InvivoGen), according to the manufacturer’s instructions.
(§4) Fig. 3 Saturated but not unsaturated CLs have pro-inflammatory properties. a RAW-Blue™ cells were incubated overnight with the indicated amount of CL or LPS, supernatants were collected, and NF-κB activation quantified via Quanti-Blue™ test and reported here as fold induction as compared to control. Unpaired t test: differences with respect to the control (Ctrl) are not significant if p > 0.05 (no symbol); *p ≤ 0.0007. b Immortalized BMDM cells were incubated overnight with the indicated amount of CL or LPS; supernatants were collected and TNF-α quantified via ELISA assay. c, d Primary human monocytes were incubated overnight with the indicated amount of CL or LPS with or without the NLRP3 inhibitor MCC950, supernatants were collected, and TNF-α and IL-1β were quantified via ELISA assay. Graphs are representative of experiments from six different donors. Unpaired t test: differences with respect to the control (Ctrl) are not significant if p > 0.05 (no symbol); *p ≤ 0.021. Each bar represents the mean + standard deviation of three biological replicates (n = 3). Graphs are representative of at least three independent experiments

The subject of assay [3] is immortalized BMDMs. The experiment in a line: TNF-α secretion in immortalized BMDMs (WT or TLR4-KO) incubated with CL or LPS. The format is cell-based, murine. Conditions: CL alone, overnight, immortalized BMDM. The procedure:
Immortalized BMDM were seeded the day before the experiment at 5 × 10^5 cells/mL in 48-well plates (500 μL/well).
After stimulation, supernatants were collected, centrifuged, and assayed for cytokine secretion, while cells were assayed for viability.
TNF-α and IP-10 were quantified in cell supernatants using DuoSet ELISA kits from R&D Systems and human IL-1β using Instant ELISA™ Kit from Invitrogen, according to the manufacturer’s instructions. Absorbance was read with a BioTek Synergy HT Microplate Readers.
as §4
(§5) Fig. 4 Saturated CLs are TLR4 agonists. a HEK293 cells were transfected with plasmids encoding murine TLR4, MD2, and CD14 (mTLR4), human TLR4, MD2, and CD14 (hTLR4) or with empty pcDNA3.1 plasmid, MD2 and CD14 (w/o TLR) together with a luciferase reporter plasmid dependent on NF-κB activation and a constitutively active reporter vector-encoding renilla luciferase. Two days after transfection, cells were incubated for 6 h with medium alone (Ctrl) or the indicated amount of CLs or LPS. Luciferase and renilla were quantified in cell lysate, normalized and reported here as fold induction as compared to control. Unpaired t test: differences compared to the control are not significant if p > 0.05(no symbol); *p ≤ 0.005. b WT and TLR4-KO iBMDM cells were incubated overnight with medium (c), LPS or C14:0 CL. For each condition, mTNF-α was measured by ELISA assay. Unpaired t test: differences with respect to the control are not significant if p > 0.05(no symbol); *p ≤ 0.0001. Each bar represents the mean + standard deviation of three biological replicates (n = 3). Graphs are representative of at least three independent experiments

Assay [4] addresses T2, human TLR4, MD2, and CD14 (Homo sapiens, UniProt O00206+Q9Y6Y9).
T2 construct: expressed in transfected cells; host or cells: HEK293 (ATCC CRL1573), transient transfection with jetPEI
Briefly: NF-κB luciferase reporter activation by CLs in HEK293 cells transfected with human TLR4, MD2 and CD14. The format is cell-based. The procedure: as §1, §2
The first signaling event of these pathways is NF-κB activation through TLR4 activation. To investigate how the individual CD14, TLR4, and MD2 proteins contribute to the responses of cells to CL, we used the HEK transfection model where we can control which protein (including from different species) may be added to the cells and their contribution to CL activation of Nf-κB [21, 30, 31]. We transfected HEK293 cells with human or murine CD14 and MD2 with or without TLR4 and incubated them with saturated CLs for 6 h (Fig. 4a). All three saturated CLs activated murine TLR4. By contrast, only C16:0 and C18:0 activated the human receptor. To further confirm the role of TLR4, we compared TNF-α secretion induced by C14:0 CL in wild-type (WT) or TLR4 knock out (TLR4 KO) immortalized BMDMs. Both LPS and C14:0 CL induced TNF-α secretion in WT but not in TLR4-KO BMDMs (Fig. 4b). TLR4-KO BMDMs were normally responsive to TLR2 ligand Pam3CSK4 (data not shown).
as §5, with “Graphs are representative of at least three independent experiments” left out
On the technique in general: Reporter assays use an easily measured gene product as a stand-in for the process of interest.

[5] abbreviates: HEK293 hTLR4/hMD2/hCD14, 1 h CL, washed, 6 h LPS, Prism fit of Fig. 8 data.

T1 sequence (O00206 24-839): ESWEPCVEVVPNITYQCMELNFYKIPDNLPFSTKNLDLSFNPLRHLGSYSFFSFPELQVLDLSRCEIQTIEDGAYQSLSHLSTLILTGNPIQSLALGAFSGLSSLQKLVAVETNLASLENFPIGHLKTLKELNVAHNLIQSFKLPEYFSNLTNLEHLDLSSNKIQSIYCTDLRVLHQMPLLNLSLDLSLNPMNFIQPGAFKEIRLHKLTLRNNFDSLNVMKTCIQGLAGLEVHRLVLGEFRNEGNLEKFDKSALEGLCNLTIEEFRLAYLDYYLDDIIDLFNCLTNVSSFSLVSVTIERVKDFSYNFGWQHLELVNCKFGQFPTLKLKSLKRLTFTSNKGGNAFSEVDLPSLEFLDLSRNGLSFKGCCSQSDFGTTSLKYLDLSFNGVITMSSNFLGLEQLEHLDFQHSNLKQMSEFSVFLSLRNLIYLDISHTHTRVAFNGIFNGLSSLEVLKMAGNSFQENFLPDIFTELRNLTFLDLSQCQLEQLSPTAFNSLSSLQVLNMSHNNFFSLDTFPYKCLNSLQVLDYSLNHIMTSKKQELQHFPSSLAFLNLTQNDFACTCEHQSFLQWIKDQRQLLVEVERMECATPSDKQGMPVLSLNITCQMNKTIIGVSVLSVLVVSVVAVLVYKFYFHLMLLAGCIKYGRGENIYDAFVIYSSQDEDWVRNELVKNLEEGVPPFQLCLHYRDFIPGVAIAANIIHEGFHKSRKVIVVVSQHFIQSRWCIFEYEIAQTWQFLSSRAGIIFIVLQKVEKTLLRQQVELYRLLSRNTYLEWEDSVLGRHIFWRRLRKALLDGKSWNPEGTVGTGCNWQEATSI
T1 sequence (Q9Y6Y9 19-160): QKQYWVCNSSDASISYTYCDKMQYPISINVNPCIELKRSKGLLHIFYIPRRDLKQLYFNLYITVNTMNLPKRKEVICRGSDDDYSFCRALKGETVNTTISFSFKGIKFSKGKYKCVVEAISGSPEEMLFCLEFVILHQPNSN
T2 sequence (O00206 24-839): as the sequence (O00206 24-839) above
T2 sequence (Q9Y6Y9 19-160): as the sequence (Q9Y6Y9 19-160) above

As a reminder, the IC50 is the concentration that gives 50% inhibition. As to `CCCC/C=C\CCCCCCCC(=O)OC[C@H](COP(=O)(O)OCC(O)COP(=O)(O)OC[C@@H](COC(=O)CCCCCCC/C=C\CCCC)OC(=O)CCCCCCC/C=C\CCCC)OC(=O)CCCCCCC/C=C\CCCC` (stereo partly shown) [C14:1 CL], in assay [1] (washed, 6 h LPS), the “inhibition of LPS-induced signaling (LPS dose-response, 0 to 1000 ng/mL), mode of action” value (“inhibition of LPS-induced signaling” below) is recorded as “competitive TLR4 antagonists”. Also, the results for the IC50 in assay [1] (setting [5]) and in assay [1] (HEK293 human TLR4/MD2/CD14) were 0.0779 µM and 0.077 µM, respectively. Also, in assay [1] (ratio of IC50 values, Table 1), the “difference in potency between C14:1 and C18:1” value was determined as 400 fold. Also, the NF-κB activation result in assay [2] is “not”. For the same compound, the TNF-α secretion entry in assay [3] was “not”.

`CCCCCCCCCCCCCCCC(=O)OC[C@H](COP(=O)(O)OCC(O)COP(=O)(O)OC[C@@H](COC(=O)CCCCCCCCCCCCCCC)OC(=O)CCCCCCCCCCCCCCC)OC(=O)CCCCCCCCCCCCCCC` (stereo partly shown) [C16:0 CL]: the “inhibition of LPS-induced signaling” value in assay [1] (washed, 6 h LPS) is listed as “did not inhibit”. For the same compound, the NF-κB activation result in assay [2] is on record as “induced”. Also, the “activation of human TLR4 (NF-κB)” value in assay [4] (6 h incubation) is “activated”. Also, the “NF-κB induction in HEK293 cells transfected with TLR4 in the absence of CD14 or MD2” value in assay [4] (hTLR4 without CD14 or without MD2, 6 h) is given as “not induced”. The TNF-α secretion entry in assay [3] is recorded as “induced”.

Take `CCCCCC/C=C\CCCCCCCC(=O)OC[C@H](COP(=O)(O)OCC(O)COP(=O)(O)OC[C@@H](COC(=O)CCCCCCC/C=C\CCCCCC)OC(=O)CCCCCCC/C=C\CCCCCC)OC(=O)CCCCCCC/C=C\CCCCCC` (stereo partly shown) [C16:1 CL]: the “inhibition of LPS-induced signaling” value in assay [1] (washed, 6 h LPS) was “competitive TLR4 antagonists”. Besides, the 50% inhibitory concentration (IC50) in assay [1] (setting [5]) turned out to be 0.925 µM. Also, in assay [2], the NF-κB activation entry is reported as “not”. In addition, the TNF-α secretion entry in assay [3] is recorded as “not”.

With `CCCCCCCC/C=C\CCCCCCCC(=O)OC[C@H](COP(=O)(O)OCC(O)COP(=O)(O)OC[C@@H](COC(=O)CCCCCCC/C=C\CCCCCCCC)OC(=O)CCCCCCC/C=C\CCCCCCCC)OC(=O)CCCCCCC/C=C\CCCCCCCC` (stereo partly shown) [C18:1 CL], the “inhibition of LPS-induced signaling” value in assay [1] (washed, 6 h LPS) is given as “competitive TLR4 antagonists”. Besides, the IC50 in assay [1] (setting [5]) was 33.5 µM. The NF-κB activation entry in assay [2] is listed as “not”. Further, in assay [3], the TNF-α secretion entry is reported as “not”.
